Source: patent publication US20030187000A1, “Inhibitors for de novo-RNA polymerases and methods of identifying targets for same” (priority 2002, published 2003)

Molecular target: T1, NS5B (Hepatitis C virus genotype 1b, UniProt P26663)
T1 construct: the RNA dependent RNA polymerase from hepatitis C virus (NS5B)
Assay: Binding studies of thiomethylsulfonate derivatives
Details: among heterocyclic/aromatic-substituted thiomethylsulfonate derivatives of FIG. 1
Text: Cys366 was modified by both compounds (i.e., BMTS and MMTS) and is located in the proximity of the primer-binding site (i.e., initiation nucleotide binding site) of the enzyme. […] Based on these observations, it should especially be recognized that specific modification of Cys366 near the primer-binding site may advantageously be employed for rational inhibitor design. Furthermore, it is contemplated that second-generation compounds may even operate without involvement of the Cys366 (i.e., without formation of a covalent bond) by targeting only the small pocket of the NS5B. To explore the binding affinity and specificity to the cysteines near the active sites of NS5B, a exemplary heterocyclic/aromatic-substituted thiomethylsulfonate derivatives were designed and synthesized as depicted in FIG. 1. […] This compound was also soaked into the polymerase NS5B.

T1 sequence (P26663 2420-3010): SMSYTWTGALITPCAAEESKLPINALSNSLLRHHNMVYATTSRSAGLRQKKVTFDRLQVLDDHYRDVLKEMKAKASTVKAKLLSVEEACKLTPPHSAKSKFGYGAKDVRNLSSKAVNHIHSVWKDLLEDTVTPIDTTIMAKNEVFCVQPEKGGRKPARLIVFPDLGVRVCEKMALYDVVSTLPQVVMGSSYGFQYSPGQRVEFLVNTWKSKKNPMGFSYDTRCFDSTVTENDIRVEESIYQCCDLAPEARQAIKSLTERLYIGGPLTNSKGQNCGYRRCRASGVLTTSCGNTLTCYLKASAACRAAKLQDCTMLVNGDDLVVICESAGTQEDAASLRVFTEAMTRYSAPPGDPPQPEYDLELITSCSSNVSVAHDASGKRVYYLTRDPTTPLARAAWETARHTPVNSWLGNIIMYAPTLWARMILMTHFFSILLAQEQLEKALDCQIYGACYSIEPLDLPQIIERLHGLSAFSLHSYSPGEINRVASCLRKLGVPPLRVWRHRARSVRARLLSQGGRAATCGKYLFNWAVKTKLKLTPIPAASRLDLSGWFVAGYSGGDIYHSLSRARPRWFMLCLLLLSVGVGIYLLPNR

CS(=O)(=O)SCc1ccc(Cl)s1 [(5-chlorothiophen-2-yl)methylthiomethylsulfonate] was tested, and the binding affinity was “highest binding affinity”.
